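Test compounds were applied to cells in 96-well plates for 48 hours at 5 doses. TGI denotes the concentration required for complete inhibition of growth.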
These compounds were tested on MALME-3M melanoma (assay: NCI anticancer screen, dose series, 48 h).

Row | Structure (SMILES) | TGI
1 | CC(=O)NC(CCCN(Cc1ccccc1)C(=O)NCCCl)C(=O)NCc1ccccc1 (configuration not stated) | > 100 µM
2 | N/N=C(\CCN1CCCC1)CC(c1ccccc1)c1c(O)c2ccccc2oc1=O (configuration not stated) | > 100 µM

The compounds below were run on MOLT-4 leukemia (assay: NCI anticancer screen, dose series, 48 h).

Row | Structure (SMILES) | TGI
3 | COc1cc2c(cc1O)[C@@]1(Cc3ccc(OC)c(OC)c3)CCC(=O)N1CC2 | > 100 µM
4 | Cc1ccc(Oc2ccc(C(=O)c3cccc(C(=O)c4ccc(Oc5ccc(C)cc5)cc4)n3)cc2)cc1 | > 100 µM
5 | COc1ccc(/C=C/C(=O)c2cc(C(=O)O)c(OC)cc2OC)cc1OC | > 100 µM
6 | CC(=O)NC(CCCN(Cc1ccccc1)C(=O)NCCCl)C(=O)NCc1ccccc1 (configuration not stated) | > 100 µM
7 | N/N=C(\CCN1CCCC1)CC(c1ccccc1)c1c(O)c2ccccc2oc1=O (configuration not stated) | > 100 µM

These compounds were tested on NCI-H226 lung (assay: NCI anticancer screen, dose series, 48 h).

Row | Structure (SMILES) | TGI
8 | COc1cc2c(cc1O)[C@@]1(Cc3ccc(OC)c(OC)c3)CCC(=O)N1CC2 | > 100 µM
9 | Cc1ccc(Oc2ccc(C(=O)c3cccc(C(=O)c4ccc(Oc5ccc(C)cc5)cc4)n3)cc2)cc1 | > 100 µM
10 | COc1ccc(/C=C/C(=O)c2cc(C(=O)O)c(OC)cc2OC)cc1OC | > 100 µM
11 | CC(=O)NC(CCCN(Cc1ccccc1)C(=O)NCCCl)C(=O)NCc1ccccc1 (configuration not stated) | > 100 µM
12 | N/N=C(\CCN1CCCC1)CC(c1ccccc1)c1c(O)c2ccccc2oc1=O (configuration not stated) | > 100 µM

These compounds were tested on NCI-H23 lung (assay: NCI anticancer screen, dose series, 48 h).

Row | Structure (SMILES) | TGI
13 | COc1cc2c(cc1O)[C@@]1(Cc3ccc(OC)c(OC)c3)CCC(=O)N1CC2 | > 100 µM
14 | Cc1ccc(Oc2ccc(C(=O)c3cccc(C(=O)c4ccc(Oc5ccc(C)cc5)cc4)n3)cc2)cc1 | > 100 µM
15 | COc1ccc(/C=C/C(=O)c2cc(C(=O)O)c(OC)cc2OC)cc1OC | > 100 µM
16 | CC(=O)NC(CCCN(Cc1ccccc1)C(=O)NCCCl)C(=O)NCc1ccccc1 (configuration not stated) | > 100 µM
17 | N/N=C(\CCN1CCCC1)CC(c1ccccc1)c1c(O)c2ccccc2oc1=O (configuration not stated) | > 100 µM

The compounds below were run on NCI-H460 lung (assay: NCI anticancer screen, dose series, 48 h).

Row | Structure (SMILES) | TGI
18 | COc1cc2c(cc1O)[C@@]1(Cc3ccc(OC)c(OC)c3)CCC(=O)N1CC2 | > 100 µM
19 | Cc1ccc(Oc2ccc(C(=O)c3cccc(C(=O)c4ccc(Oc5ccc(C)cc5)cc4)n3)cc2)cc1 | > 100 µM
20 | COc1ccc(/C=C/C(=O)c2cc(C(=O)O)c(OC)cc2OC)cc1OC | > 100 µM
21 | CC(=O)NC(CCCN(Cc1ccccc1)C(=O)NCCCl)C(=O)NCc1ccccc1 (configuration not stated) | > 100 µM
22 | N/N=C(\CCN1CCCC1)CC(c1ccccc1)c1c(O)c2ccccc2oc1=O (configuration not stated) | > 100 µM

The compounds below were run on NCI-H522 lung (assay: NCI anticancer screen, dose series, 48 h).

Row | Structure (SMILES) | TGI
23 | Cc1ccc(Oc2ccc(C(=O)c3cccc(C(=O)c4ccc(Oc5ccc(C)cc5)cc4)n3)cc2)cc1 | > 100 µM
24 | COc1ccc(/C=C/C(=O)c2cc(C(=O)O)c(OC)cc2OC)cc1OC | > 100 µM
25 | CC(=O)NC(CCCN(Cc1ccccc1)C(=O)NCCCl)C(=O)NCc1ccccc1 (configuration not stated) | > 100 µM
26 | N/N=C(\CCN1CCCC1)CC(c1ccccc1)c1c(O)c2ccccc2oc1=O (configuration not stated) | > 100 µM

These compounds were tested on OVCAR-3 ovarian (assay: NCI anticancer screen, dose series, 48 h).

Row | Structure (SMILES) | TGI
27 | COc1cc2c(cc1O)[C@@]1(Cc3ccc(OC)c(OC)c3)CCC(=O)N1CC2 | > 100 µM
28 | Cc1ccc(Oc2ccc(C(=O)c3cccc(C(=O)c4ccc(Oc5ccc(C)cc5)cc4)n3)cc2)cc1 | > 100 µM
29 | CC(=O)NC(CCCN(Cc1ccccc1)C(=O)NCCCl)C(=O)NCc1ccccc1 (configuration not stated) | > 100 µM
30 | N/N=C(\CCN1CCCC1)CC(c1ccccc1)c1c(O)c2ccccc2oc1=O (configuration not stated) | > 100 µM

What follows are compounds tested on OVCAR-4 ovarian (assay: NCI anticancer screen, dose series, 48 h).

Row | Structure (SMILES) | TGI
31 | COc1cc2c(cc1O)[C@@]1(Cc3ccc(OC)c(OC)c3)CCC(=O)N1CC2 | > 100 µM
32 | Cc1ccc(Oc2ccc(C(=O)c3cccc(C(=O)c4ccc(Oc5ccc(C)cc5)cc4)n3)cc2)cc1 | > 100 µM
33 | COc1ccc(/C=C/C(=O)c2cc(C(=O)O)c(OC)cc2OC)cc1OC | > 100 µM
34 | CC(=O)NC(CCCN(Cc1ccccc1)C(=O)NCCCl)C(=O)NCc1ccccc1 (configuration not stated) | > 100 µM
35 | N/N=C(\CCN1CCCC1)CC(c1ccccc1)c1c(O)c2ccccc2oc1=O (configuration not stated) | > 100 µM

These compounds were tested on OVCAR-5 ovarian (assay: NCI anticancer screen, dose series, 48 h).

Row | Structure (SMILES) | TGI
36 | COc1cc2c(cc1O)[C@@]1(Cc3ccc(OC)c(OC)c3)CCC(=O)N1CC2 | > 100 µM
37 | Cc1ccc(Oc2ccc(C(=O)c3cccc(C(=O)c4ccc(Oc5ccc(C)cc5)cc4)n3)cc2)cc1 | > 100 µM
38 | COc1ccc(/C=C/C(=O)c2cc(C(=O)O)c(OC)cc2OC)cc1OC | > 100 µM
39 | CC(=O)NC(CCCN(Cc1ccccc1)C(=O)NCCCl)C(=O)NCc1ccccc1 (configuration not stated) | > 100 µM
40 | N/N=C(\CCN1CCCC1)CC(c1ccccc1)c1c(O)c2ccccc2oc1=O (configuration not stated) | > 100 µM

These compounds were tested on OVCAR-8 ovarian (assay: NCI anticancer screen, dose series, 48 h).

Row | Structure (SMILES) | TGI
41 | COc1cc2c(cc1O)[C@@]1(Cc3ccc(OC)c(OC)c3)CCC(=O)N1CC2 | > 100 µM
42 | Cc1ccc(Oc2ccc(C(=O)c3cccc(C(=O)c4ccc(Oc5ccc(C)cc5)cc4)n3)cc2)cc1 | > 100 µM
43 | COc1ccc(/C=C/C(=O)c2cc(C(=O)O)c(OC)cc2OC)cc1OC | > 100 µM
44 | CC(=O)NC(CCCN(Cc1ccccc1)C(=O)NCCCl)C(=O)NCc1ccccc1 (configuration not stated) | > 100 µM
45 | N/N=C(\CCN1CCCC1)CC(c1ccccc1)c1c(O)c2ccccc2oc1=O (configuration not stated) | > 100 µM

What follows are compounds tested on RPMI-8226 leukemia (assay: NCI anticancer screen, dose series, 48 h).

Row | Structure (SMILES) | TGI
46 | COc1cc2c(cc1O)[C@@]1(Cc3ccc(OC)c(OC)c3)CCC(=O)N1CC2 | > 100 µM
47 | COc1ccc(/C=C/C(=O)c2cc(C(=O)O)c(OC)cc2OC)cc1OC | > 100 µM
48 | CC(=O)NC(CCCN(Cc1ccccc1)C(=O)NCCCl)C(=O)NCc1ccccc1 (configuration not stated) | > 100 µM
49 | N/N=C(\CCN1CCCC1)CC(c1ccccc1)c1c(O)c2ccccc2oc1=O (configuration not stated) | > 100 µM

What follows are compounds tested on RXF 393 renal (assay: NCI anticancer screen, dose series, 48 h).

Row | Structure (SMILES) | TGI
50 | COc1cc2c(cc1O)[C@@]1(Cc3ccc(OC)c(OC)c3)CCC(=O)N1CC2 | > 100 µM
51 | Cc1ccc(Oc2ccc(C(=O)c3cccc(C(=O)c4ccc(Oc5ccc(C)cc5)cc4)n3)cc2)cc1 | > 100 µM
52 | CC(=O)NC(CCCN(Cc1ccccc1)C(=O)NCCCl)C(=O)NCc1ccccc1 (configuration not stated) | > 100 µM
53 | N/N=C(\CCN1CCCC1)CC(c1ccccc1)c1c(O)c2ccccc2oc1=O (configuration not stated) | > 100 µM

The compounds below were run on SF-268 CNS (assay: NCI anticancer screen, dose series, 48 h).

Row | Structure (SMILES) | TGI
54 | COc1cc2c(cc1O)[C@@]1(Cc3ccc(OC)c(OC)c3)CCC(=O)N1CC2 | > 100 µM
55 | Cc1ccc(Oc2ccc(C(=O)c3cccc(C(=O)c4ccc(Oc5ccc(C)cc5)cc4)n3)cc2)cc1 | > 100 µM
56 | COc1ccc(/C=C/C(=O)c2cc(C(=O)O)c(OC)cc2OC)cc1OC | > 100 µM
57 | CC(=O)NC(CCCN(Cc1ccccc1)C(=O)NCCCl)C(=O)NCc1ccccc1 (configuration not stated) | > 100 µM
58 | N/N=C(\CCN1CCCC1)CC(c1ccccc1)c1c(O)c2ccccc2oc1=O (configuration not stated) | > 100 µM

What follows are compounds tested on SF-295 CNS (assay: NCI anticancer screen, dose series, 48 h).

Row | Structure (SMILES) | TGI
59 | COc1cc2c(cc1O)[C@@]1(Cc3ccc(OC)c(OC)c3)CCC(=O)N1CC2 | > 100 µM
60 | Cc1ccc(Oc2ccc(C(=O)c3cccc(C(=O)c4ccc(Oc5ccc(C)cc5)cc4)n3)cc2)cc1 | > 100 µM
61 | COc1ccc(/C=C/C(=O)c2cc(C(=O)O)c(OC)cc2OC)cc1OC | > 100 µM
62 | CC(=O)NC(CCCN(Cc1ccccc1)C(=O)NCCCl)C(=O)NCc1ccccc1 (configuration not stated) | > 100 µM
63 | N/N=C(\CCN1CCCC1)CC(c1ccccc1)c1c(O)c2ccccc2oc1=O (configuration not stated) | > 100 µM

The compounds below were run on SF-539 CNS (assay: NCI anticancer screen, dose series, 48 h).

Row | Structure (SMILES) | TGI
64 | COc1cc2c(cc1O)[C@@]1(Cc3ccc(OC)c(OC)c3)CCC(=O)N1CC2 | > 100 µM
65 | Cc1ccc(Oc2ccc(C(=O)c3cccc(C(=O)c4ccc(Oc5ccc(C)cc5)cc4)n3)cc2)cc1 | > 100 µM
66 | COc1ccc(/C=C/C(=O)c2cc(C(=O)O)c(OC)cc2OC)cc1OC | > 100 µM
67 | CC(=O)NC(CCCN(Cc1ccccc1)C(=O)NCCCl)C(=O)NCc1ccccc1 (configuration not stated) | > 100 µM
